From patent publication US7414068B2, “Benzopyran derivatives substituted with secondary amines including tetrazole, method for the preparation thereof and pharmaceutical compositions containing them” (Dongbu Hannong Chemical Co., Ltd., priority 2002, dated 2008)

Key:
RAW 264.7 cells = assay: Inhibitory effect on NO production (LPS, Griess reagent); type: cell-based, murine; details: Mus musculus, RAW264.7, 24 h, Addition 30 μM, LPS 1 μg/ml, read-out: Inihibition (%) of NO production
Method: Using RPMI1640 media supplemented with 10% fetal bovine serum (FBS), RAW 264.7 cells (obtained from American Type Culture Collection), a murine macrophage cell line, were cultured at 37° C. in a 5% CO2 incubator. The RAW 264.7 cells were harvested and cell density was adjusted to 5×10^5 cell/ml with a RPMI media supplemented with 0.5% FBS and plated at 5×10^4 cell/well to 96-well plate, which were then cultured for 20 hours in a CO2 incubator. After removal of the media, the cells were pre-treated for 1 hour with fresh media containing 30 μM. The test compounds were dissolved in DMSO and diluted to respective concentration in the media. In order to minimize DMSO effect on the nitric oxide formation by the RAW 264.7 cells in the walls, the media were allowed to contain DMSO at a concentration of 0.1% or less.
After completion of one-hour pre-treatment, Lipopolysaccharide (E. coli serotype 055:B5) was added to activate the cells at a final concentration of 1 μg/ml, which were maintained for 24 hours in a CO2 incubator. As a result of the activation of RAW 264.7 cells with LPS, NO was formed. The NO release into the media was in a form of nitrite (NO2^−) and quantitatively measured using the Griess reagent. A control group was treated only with vehicle instead of test compounds.
The inhibitory effect of the test compounds against NO production were determined as the reduction of NO quantity compared with that of the control group.

cortical neuron cells = assay: Protective effect on iron-induced neuronal cell injury (LDH release); type: cell-based; details: FeSO4 50 μM; for protective effect on neuron cell: Inhibition (%, 30 μM compound addition): LDH reduction vs control; for IC50: LDH
Summary of the method: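 Embryonic (day 17–18) cortical neurons cultured 7–9 days, serum lowered to 0.2%, pretreated 30 min with compound (DMSO ≤0.1%), then exposed to 50 μM FeSO4 for 24 h. LDH released to medium measured; protection expressed as LDH reduction versus vehicle control.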

[1] = tested on: isolated ischemic rat heart; assay: Cardioprotective effect in ischemic heart models of rats (Langendorff); details: 10 μM; for EDP (mmHg): after 30 min global ischemia and reperfusion; for LDH (u/g): reperfusion LDH release; for LVDP X HR (%): reperfusion, % of pre-treatment DP; for TTC: time to contracture during global ischemia
Method: Male rats (300˜450 g, obtained form the experimental animal team of the Korea Research Institute of Chemical Technology) were anaesthetized by the intra-peritoneal injection of sodium pentobarbital at a dose of 100 mg/kg. Heparin (1,000 U/kg) was injected to the tail vein and then the heart was enucleated. Particularly, cannula (PE 240) was inserted to the organ. Rats were mechanically ventilated with a rodent ventilator, in situ aorta cannula was inserted into their aorta. In retorograde perfusion, their hearts were enucleated, then just hung onto Langendorff Apparatus. Tissue attached at the heart was removed. Heart was perfused in oxygenated modified Krebs-Henseleit bicarbonate buffer (composition<mM/L>116 NaCl, 4.7 KCl, 1.1 MgSO4, 1.17 KH2PO4, 24.9 NaHCO3, 2.52 CaCl2, 8.32 Glucose, 2.0 Pyruvate) at a constant perfusion pressure (85 mmHg). A metal cannula attached to latex balloon filled with solvent (ethanol: water=1:1 (v/v)) was placed in the left ventricle through pulmonary vein and connected to a isovolumetric pressure transducer (H.S.E., Germany) for measurement of left ventricular pressure (LVP). The hearts were allowed to equilibrate for 15 min, at which time left ventricular end-diastolic pressure (EDP) was adjusted to 5 mmHg and this balloon volume was maintained throughout the experiment.
Baseline cardiac contractile function, heart rate (HR), and coronary flow (CF) were measured. Cardiac contractile function was calculated by […], yielding LVDP (left ventricular developed pressure). Double product RPP (rate-pressure product) (DP), another important parameter for indirectly assessing cardiac performance in Langendorff heart impossible to measure cardiac output was calculated by multiplying HR by LVDP.
Throughout the experiment, total coronary blood flow was measured by the use of coronary flow probe (diameter: 1.0 mm) installed in aortic cannula with electromagnetic flowmeter. Temperature of heart was steadily maintained by immersing the heart at 37° C. in physiological saline solution to which 95% O2/5% CO2 was constantly supplied. After stabilization for 15 min, the hearts were pre-treated for 10 min in vehicle (0.04% DMSO) or mixture containing the compound of the present invention or control material. Thereafter, cardiac contractile function, HR and CF were repeatedly measured. Global ischemia was induced by completely shutting off the perfusate for 30 min. Severity of ischemia was determined as the time to contracture (TTC, min) during global ischemia in which the first 5 mmHg increase in EDP was observed. Then, the hearts were reperfused and, 30 min later, contractile functions (LVDP, HR and CF) was repeatedly measured. After reperfusion was accomplished for 30 min, LDH (lactate dehydrogenase) was measured as a sensitive index for loss of cell viability with a kit.

brain homogenate = assay: Inhibitory effect against lipid peroxidation by iron (MDA quantification); type: biochemical, rat; details: 100 μM compound, FeCl2 400 μM, 37° C. 30 min
Method: The rat brain was homogenized in a Krebs buffer (15 mM HEPES, 10 mM glucose, 140 mM NaCl, 3.6 mM KCl, 1.5 mM CaCl2, 1.4 mM KH2PO4, 0.7 mM MgCl2, PH 7.4) and the supernatant separated by centrifugation at 12,000 rpm for 10 min was used for further experiments. FeCl2 was added for the final concentration to be 400 μM. Then the brain homogenate was allowed to stand at 37° C. for 30 min for the facilitation of oxidation. Each of the test compounds was added at a concentration of 100 μM. For control group, only vehicle was applied.
Iron facilitates the oxidation of the said brain homogenate to produce malondialdehyde (MDA), lipid peroxidation product. Thus, the lipid peroxidation was determined by MDA quantification. The inhibitory effect against lipid peroxidation of the test compounds was evaluated by calculating MDA reduction rate of the test compounds compared with that of the control group.
Typically, the MDA quantification is achieved by reacting samples with 2-thiobarbituric acid (TBA) and measuring the absorbance at 530 nm. However, this method is unsuitable to treat samples on a large scale because of a boiling step. Thus, in this experiment, N-methyl-2-phenylindole was used instead of TBA.

[2] = Acute oral toxicity test in rats; details: SD, rat, in vivo, single oral dose, suspended in 0.5% methyl cellulose, read-out: lethal dose (LD50) for oral administration
Summary of the method: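 Six-week-old SPF SD rats, two per group, received compounds orally as suspensions in 0.5% methyl cellulose. Endpoints were clinical signs, body weight, mortality, haematology, serum biochemistry and macroscopic necropsy of organs and tissues.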

isolated rat aorta = assay: Vasodilating effect on blood vessel excised from rats (methoxamine-constricted aorta); details: isolated rat aorta constricted with methoxamine (3 μM); read-out: Concentration for inhibition of constriction induced by methoxamine in rat arota (IC50)
Summary of the method: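 Endothelium-denuded rat thoracic aortic rings (3 mm) in Krebs-Henseleit buffer, 37 °C, carbogen, 2 g resting tension, primed twice with 10^−5 M phenylephrine. After maximal contraction with 3×10^−6 M methoxamine, compounds added cumulatively at 1, 3, 10, 30 μM. IC50 = concentration giving 50% relaxation of maximal constriction, by linear regression.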

Compound | inhibition at 30 µM (RAW 264.7 cells) [%] | protective effect on neuron cell: Inhibition (%, 30 μM compound addition) (cortical neuron cells; 24 hours) [%] | IC50 (cortical neuron cells; Cortical neurone, 24 h) [µM] | IC50 (cortical neuron cells; 24 hours) [µM] | EDP (mmHg) [1] [mmHg] | LDH (u/g) [1] [u/g] | LVDP X HR (%) [1] [%] | TTC [1] [min] | inhibitory effect against lipid peroxidation induced by iron (%, 100 μM) (brain homogenate) [%] | LD50 [2] [mg/kg] | IC50 (isolated rat aorta) [µM]
COC(OC)[C@@]1(C)Oc2ccc([N+](=O)[O-])cc2[C@H](N(Cc2nnn(C)n2)c2ccccc2Cl)[C@H]1O [Example 29, (2S,3R,4S)-6-nitro-4-[N-(2-chlorophenyl)-N-(2-methyl-2H-tetrazol-5-ylmethyl)amino]-3-hydroxy-2-methyl-2-dimethoxymethyl-3,4-dihydro-2H-1-benzopyran] | > 75 | – | – | – | – | – | – | – | – | – | –
COC(OC)[C@@]1(C)Oc2ccc(N)cc2[C@H](N(Cc2nnn(C)n2)c2ccc(OC(F)(F)F)cc2)[C@H]1O [Example 32, (2S,3R,4S)-6-amino-4-[N-(4-trifluoromethoxyphenyl)-N-(2-methyl-2H-tetrazol-5-ylmethyl)amino]-3-hydroxy-2-methyl-2-dimethoxymethyl-3,4-dihydro-2H-1-benzopyran] | – | 108 | < 2 | 1.6 | 17.0 | 15.7 | 64.7 | 27.9 | 89 | > 2000 | > 30
COC(OC)[C@@]1(C)Oc2ccc([N+](=O)[O-])cc2[C@H](N(Cc2nnn(C)n2)c2ccc(C)cc2C)[C@H]1O [Example 45, (2S,3R,4S)-6-nitro-4-[N-(2,4-dimethylphenyl)-N-(2-methyl-2H-tetrazol-5-ylmethyl)amino]-3-hydroxy-2-methyl-2-dimethoxymethyl-3,4-dihydro-2H-1-benzopyran] | > 75 | – | – | – | – | – | – | – | – | – | –
COC(OC)[C@@]1(C)Oc2ccc([N+](=O)[O-])cc2[C@H](N(Cc2nnn(C)n2)c2c(C)cccc2C)[C@H]1O [Example 47, (2S,3R,4S)-6-nitro-4-[N-(2,6-dimethylphenyl)-N-(2-methyl-2H-tetrazol-5-ylmethyl)amino]-3-hydroxy-2-methyl-2-dimethoxymethyl-3,4-dihydro-2H-1-benzopyran] | 62 | – | – | – | – | – | – | – | – | – | –
COC(OC)[C@@]1(C)Oc2ccc([N+](=O)[O-])cc2[C@H](N(Cc2nnn(C)n2)c2ccccc2C(C)C)[C@H]1O [Example 51, (2S,3R,4S)-6-nitro-4-[N-(2-isopropylphenyl)-N-(2-methyl-2H-tetrazol-5-ylmethyl)amino]-3-hydroxy-2-methyl-2-dimethoxymethyl-3,4-dihydro-2H-1-benzopyran] | > 90 | – | – | – | – | – | – | – | – | – | –
COC(=O)c1cccc(N(Cc2nnn(C)n2)[C@H]2c3cc([N+](=O)[O-])ccc3O[C@](C)(C(OC)OC)[C@@H]2O)c1 [Example 58, (2S,3R,4S)-6-nitro-4-[N-(3-methoxycarbonylphenyl)-N-(2-methyl-2H-tetrazol-5-ylmethyl)amino]-3-hydroxy-2-methyl-2-dimethoxymethyl-3,4-dihydro-2H-1-benzopyran] | > 75 | – | – | – | – | – | – | – | – | – | –
COC(OC)[C@@]1(C)Oc2ccc(N)cc2[C@H](N(Cc2nnn(C)n2)c2ccccc2O)[C@H]1O [Example 61, (2S,3R,4S)-6-amino-4-[N-(2-hydroxyphenyl)-N-(2-methyl-2H-tetrazol-5-ylmethyl)amino]-3-hydroxy-2-methyl-2-dimethoxymethyl-3,4-dihydro-2H-1-benzopyran] | – | 89 | < 2 | 1.2 | 23.0 | 22.4 | 52.7 | 20.0 | 87 | > 2000 | > 30
COC(=O)c1ccc(C)c(N(Cc2nnn(C)n2)[C@H]2c3cc([N+](=O)[O-])ccc3O[C@](C)(C(OC)OC)[C@@H]2O)c1 [Example 68, (2S,3R,4S)-6-nitro-4-[N-(2-methyl-5-methoxycarbonylphenyl)-N-(2-methyl-2H-tetrazol-5-ylmethyl)amino]-3-hydroxy-2-methyl-2-dimethoxymethyl-3,4-dihydro-2H-1-benzopyran] | 64 | – | – | – | – | – | – | – | – | – | –
COC(OC)[C@@]1(C)Oc2ccc([N+](=O)[O-])cc2[C@H](N(Cc2nnn(C)n2)c2cc(C)ccc2O)[C@H]1O [Example 70, (2S,3R,4S)-6-nitro-4-[N-(2-hydroxy-5-methylphenyl)-N-(2-methyl-2H-tetrazol-5-ylmethyl)amino]-3-hydroxy-2-methyl-2-dimethoxymethyl-3,4-dihydro-2H-1-benzopyran] | > 75 | 85 | < 2 | 1.4 | 37.0 | 18.4 | 31.9 | 22.0 | – | > 2000 | > 30
COC(OC)[C@@]1(C)Oc2ccc(N)cc2[C@@H](N(Cc2nnn(C)n2)c2ccc(OC(F)(F)F)cc2)[C@@H]1O [Example 81, (2S,3S,4R)-6-amino-4-[N-(4-trifluoromethoxyphenyl)-N-(2-methyl-2H-tetrazol-5-ylmethyl)amino]-3-hydroxy-2-methyl-2-dimethoxymethyl-3,4-dihydro-2H-1-benzopyran] | – | 120 | < 2 | 1.5 | – | – | – | – | 89 | > 2000 | > 30
